Laboratory results reported in ChEMBL document CHEMBL1909046, “DrugMatrix in vitro pharmacology data”.
pIC50, pKi: −log10 of the molar value.

What was measured:
Glycine receptor = Glycine receptor (Rattus norvegicus, UniProt P22771+P24524+P07727+P20781); type: cell membranes, Wistar, Spinal cord, Membrane; also: in other assays of this panel Not Active means under 50% inhibition at 10 µM
[1] = DRUGMATRIX: Purinergic P2X radioligand binding (ligand: [3H] alpha, beta-Methylene-ATP); type: cell membranes, Oryctolagus cuniculus, New Zealand albino, Urinary bladder, Membrane; settings: Not Active = under 50% inhibition at 10 µM
[2] = biological target: T1, Alpha-2A adrenergic receptor (Homo sapiens, UniProt P08913); type: cell membranes, Sf9, Membrane; settings: for pIC50: read-out: IC50; for pKi: read-out: Ki; for IC50: sf9; as to all read-outs here: in other assays of this panel Not Active means under 50% inhibition at 10 µM
T1 sequence (P08913 whole entry): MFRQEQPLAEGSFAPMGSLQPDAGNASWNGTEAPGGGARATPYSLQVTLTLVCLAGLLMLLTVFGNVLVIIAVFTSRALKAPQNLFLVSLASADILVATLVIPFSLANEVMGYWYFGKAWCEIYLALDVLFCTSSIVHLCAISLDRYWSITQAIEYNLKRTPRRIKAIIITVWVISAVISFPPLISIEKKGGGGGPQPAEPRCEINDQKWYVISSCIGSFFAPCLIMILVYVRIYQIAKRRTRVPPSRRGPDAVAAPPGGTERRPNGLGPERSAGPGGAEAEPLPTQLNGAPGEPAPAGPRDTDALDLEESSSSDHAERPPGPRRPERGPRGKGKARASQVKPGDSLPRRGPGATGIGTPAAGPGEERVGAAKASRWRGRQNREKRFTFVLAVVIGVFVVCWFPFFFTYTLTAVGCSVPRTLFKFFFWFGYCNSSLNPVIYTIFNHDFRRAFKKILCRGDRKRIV

[3] = biological target: Tyrosine-protein kinase Lck (Homo sapiens, UniProt P06239); experiment: DRUGMATRIX: Protein Tyrosine Kinase, LCK enzyme inhibition (substrate: Poly(Glu:Tyr)); type: cell-based, Insect cells; settings: insect cells; Not Active = under 50% inhibition at 10 µM
Progesterone receptor = biological target: T2, Progesterone receptor (Bos taurus, UniProt Q690N0); experiment: DRUGMATRIX: Progesterone radioligand binding (ligand: [3H] R-5020); type: tissue-based, Uterus; settings: Not Active = under 50% inhibition at 10 µM
T2 sequence (Q690N0 whole entry): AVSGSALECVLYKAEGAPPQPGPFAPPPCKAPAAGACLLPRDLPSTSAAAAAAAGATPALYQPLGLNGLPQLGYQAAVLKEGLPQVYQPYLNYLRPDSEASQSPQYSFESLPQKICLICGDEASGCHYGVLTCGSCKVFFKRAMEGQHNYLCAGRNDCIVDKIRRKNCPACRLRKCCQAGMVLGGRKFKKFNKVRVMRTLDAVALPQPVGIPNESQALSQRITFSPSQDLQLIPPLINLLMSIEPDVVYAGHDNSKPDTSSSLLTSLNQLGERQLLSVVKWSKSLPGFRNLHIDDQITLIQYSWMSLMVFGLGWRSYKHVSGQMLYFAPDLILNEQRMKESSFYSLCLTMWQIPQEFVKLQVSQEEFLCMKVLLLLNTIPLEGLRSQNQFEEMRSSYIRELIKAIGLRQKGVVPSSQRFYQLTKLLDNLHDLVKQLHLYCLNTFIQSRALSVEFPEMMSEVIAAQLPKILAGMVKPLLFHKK

Sequence of Tyrosine-protein kinase Lck (P06239 whole entry): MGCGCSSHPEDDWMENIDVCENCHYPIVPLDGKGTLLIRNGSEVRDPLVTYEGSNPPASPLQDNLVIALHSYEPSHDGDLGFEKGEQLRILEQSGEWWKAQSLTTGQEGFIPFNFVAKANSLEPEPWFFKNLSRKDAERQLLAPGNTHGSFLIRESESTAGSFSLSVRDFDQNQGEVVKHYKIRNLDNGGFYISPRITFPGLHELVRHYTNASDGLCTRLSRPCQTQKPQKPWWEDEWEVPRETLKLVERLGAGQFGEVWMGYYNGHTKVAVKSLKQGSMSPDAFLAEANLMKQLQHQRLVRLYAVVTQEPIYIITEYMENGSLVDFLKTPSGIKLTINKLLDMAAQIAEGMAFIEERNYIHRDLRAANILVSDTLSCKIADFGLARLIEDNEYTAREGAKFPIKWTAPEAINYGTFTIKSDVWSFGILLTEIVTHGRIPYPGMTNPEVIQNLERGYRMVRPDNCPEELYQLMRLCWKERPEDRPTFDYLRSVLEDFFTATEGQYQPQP

In the case of `CN(C)CC[C@@H](c1ccc(Cl)cc1)c1ccccn1` [DEXCHLORPHENIRAMINE], the IC50 (Glycine receptor) was “Not Active”, the IC50 [1] was “Not Active” and the Ki [1] was “Not Active”. The pIC50 [2] was 4.69, the pKi [2] was 5.12 and the IC50 [3] was “Not Active”. The IC50 (Progesterone receptor) was “Not Active”.

In the case of `C[C@@H]1CC[C@@]2(OC1)O[C@H]1[C@@H](O)[C@H]3[C@@H]4CC[C@H]5C[C@@H](O[C@@H]6O[C@H](CO)[C@H](O[C@@H]7O[C@H](CO)C(O)[C@H](O[C@@H]8OC[C@@H](O)[C@H](O)[C@H]8O)[C@H]7O[C@@H]7O[C@H](CO)[C@H](O)[C@H](O[C@@H]8O[C@H](CO)[C@@H](O)[C@H](O)[C@H]8O)[C@H]7O)[C@H](O)[C@H]6O)[C@H](O)C[C@]5(C)[C@H]4CC[C@]3(C)[C@H]1[C@@H]2C` (stereo partly drawn) [DIGITONIN], the IC50 (Glycine receptor) was “Not Active”, the IC50 [1] was “Not Active” and the Ki [1] was “Not Active”. For the same compound, the IC50 [2] was “Not Active”, the IC50 [3] was “Not Active” and the IC50 (Progesterone receptor) was “Not Active”.

For `OC(CCCN1CCCCC1)(c1ccccc1)c1ccccc1` [DIPHENIDOL], the IC50 (Glycine receptor) was “Not Active”, the IC50 [1] was “Not Active” and the Ki [1] was “Not Active”. The IC50 [2] was “Not Active”, the IC50 [3] was “Not Active” and the IC50 (Progesterone receptor) was “Not Active”.

In the case of `C[C@H]1O[C@@H](n2cc(F)c(=O)[nH]c2=O)[C@H](O)[C@@H]1O` [DOXIFLURIDINE], the IC50 (Glycine receptor) was “Not Active”, the IC50 [1] was “Not Active” and the Ki [1] was “Not Active”. For the same compound, the IC50 [2] was “Not Active”, the IC50 [3] was “Not Active” and the IC50 (Progesterone receptor) was “Not Active”.

In the case of `Cn1c(=O)c2c(ncn2CC(O)CO)n(C)c1=O` (stereo not drawn) [DYPHYLLINE], the IC50 (Glycine receptor) was “Not Active”, the IC50 [1] was “Not Active” and the Ki [1] was “Not Active”. The IC50 [2] was “Not Active”, the IC50 [3] was “Not Active” and the IC50 (Progesterone receptor) was “Not Active”.

In the case of `CC[C@H]1CN2CCc3cc(OC)c(OC)cc3[C@@H]2C[C@@H]1C[C@H]1NCCc2cc(OC)c(OC)cc21` [EMETINE], the IC50 (Glycine receptor) was “Not Active”, the IC50 [1] was “Not Active” and the Ki [1] was “Not Active”. For the same compound, the pIC50 [2] was 7.42, the pKi [2] was 7.85 and the IC50 [3] was “Not Active”. The IC50 (Progesterone receptor) was “Not Active”.

For `C[C@@H](CO)NC(=O)[C@@H]1C=C2c3cccc4[nH]cc(c34)C[C@H]2N(C)C1` [ERGONOVINE], the IC50 (Glycine receptor) was “Not Active”, the IC50 [1] was “Not Active” and the Ki [1] was “Not Active”. The pIC50 [2] was 5.77, the pKi [2] was 6.20 and the IC50 [3] was “Not Active”. For the same compound, the IC50 (Progesterone receptor) was “Not Active”.

With `COC(=O)CCc1ccc(OCC(O)CNC(C)C)cc1` (stereo not drawn) [ESMOLOL] the IC50 (Glycine receptor) was “Not Active”, the IC50 [1] was “Not Active” and the Ki [1] was “Not Active”. For the same compound, the IC50 [2] was “Not Active”, the IC50 [3] was “Not Active” and the IC50 (Progesterone receptor) was “Not Active”.

In the case of `CCC1(C)CC(=O)NC1=O` (stereo not drawn) [ETHOSUXIMIDE], the IC50 (Glycine receptor) was “Not Active”, the IC50 [1] was “Not Active” and the Ki [1] was “Not Active”. For the same compound, the IC50 [2] was “Not Active”, the IC50 [3] was “Not Active” and the IC50 (Progesterone receptor) was “Not Active”.

In the case of `C#C[C@]1(OC(C)=O)CC[C@H]2[C@@H]3CCC4=C[C@@H](OC(C)=O)CC[C@@H]4[C@H]3CC[C@@]21C` [ETHYNODIOL DIACETATE], the IC50 (Glycine receptor) was “Not Active”, the IC50 [1] was “Not Active” and the Ki [1] was “Not Active”. The IC50 [2] was “Not Active”, the IC50 [3] was “Not Active” and the pIC50 (Progesterone receptor; read-out: IC50) was 6.80. For the same compound, the pKi (Progesterone receptor; read-out: Ki) was 7.68.

For `COc1cc([C@@H]2c3cc4c(cc3[C@@H](O[C@@H]3O[C@@H]5CO[C@@H](C)O[C@H]5[C@H](O)[C@H]3O)[C@H]3COC(=O)[C@H]23)OCO4)cc(OC)c1O` [ETOPOSIDE], the IC50 (Glycine receptor) was “Not Active”, the IC50 [1] was “Not Active” and the Ki [1] was “Not Active”. For the same compound, the IC50 [2] was “Not Active”, the IC50 [3] was “Not Active” and the IC50 (Progesterone receptor) was “Not Active”.

With `C=CCc1ccc(O)c(OC)c1` [EUGENOL] the IC50 (Glycine receptor) was “Not Active”, the IC50 [1] was “Not Active” and the Ki [1] was “Not Active”. The IC50 [2] was “Not Active”, the IC50 [3] was “Not Active” and the IC50 (Progesterone receptor) was “Not Active”.

In the case of `CC(C(=O)O)c1cccc(Oc2ccccc2)c1` (stereo not drawn) [FENOPROFEN], the IC50 (Glycine receptor) was “Not Active”, the IC50 [1] was “Not Active” and the Ki [1] was “Not Active”. The IC50 [2] was “Not Active”, the IC50 [3] was “Not Active” and the IC50 (Progesterone receptor) was “Not Active”.

With `CC(C)(C)NC(=O)[C@H]1CC[C@H]2[C@@H]3CC[C@H]4NC(=O)C=C[C@]4(C)[C@H]3CC[C@]12C` [FINASTERIDE] the IC50 (Glycine receptor) was “Not Active”, the IC50 [1] was “Not Active” and the Ki [1] was “Not Active”. For the same compound, the IC50 [2] was “Not Active”, the IC50 [3] was “Not Active” and the IC50 (Progesterone receptor) was “Not Active”.
